Data on 61 compounds can be found in a melting point compilation (Tetko et al.; mined from patent text by program, amines drawn as free bases though some values may be those of a salt).

Each structure is given as a SMILES string.

On to `COC1CCC2C3CCC4CC(=O)C=CC4(C)C3CCC12C` (stereo unspecified), for which the melting point (as a rule, the temperature, or range, at which the solid turns liquid) fell in the range of 115 to 117 °C.

As for `CC(=O)OCC1OC(n2c(Cl)c(C=O)c3cc(Cl)c(Cl)cc32)C(O)C1O` (stereo unspecified), the melting point was in the range of 154 to 155 °C.

As to `CCOP(=O)(OCC)c1nc(N2CCCC2)nc(N2CCCC2)n1`, the melting point lay in the range of 65 to 69 °C.

Consider `CC(=O)ON(C)C(=O)C(C)Nc1c([N+](=O)[O-])cc(C)cc1[N+](=O)[O-]` (stereo unspecified), for which the melting point lay in the range of 137 to 138 °C.

Compound `NS(=O)(=O)c1ccc(-c2oc3cc(F)ccc3c(=O)c2-c2ccc(Cl)c(Cl)c2)cc1` came in with a melting point of 190 to 191 °C.

Compound `CN1CCN(Cc2ccc(NC(=O)c3cccc4cc(Oc5ccnc(NC(=O)C6CC6)c5)ccc34)cc2C(F)(F)F)CC1` gave a melting point of 218 to 220 °C.

In turn, `OC(c1ccncc1)c1c[nH]c2ccc(F)cc12` (stereo unspecified) yielded a melting point of 171 to 173 °C.

`CCCCc1nc(C(C)(C)O)c(C(=O)OCOC(=O)C(C)(C)C)n1Cc1ccc(-c2ccccc2C(=O)O)cc1`: the melting point fell in the range of 139 to 144 °C.

As for `CNc1cc(C(O)CS(C)(=O)=O)cc(N(C)C(C)=O)c1C` (stereo unspecified), the melting point was 191 to 192 °C.

On to `CC(C)c1ccc2c(c1)C(=O)N(C)C(c1ccc(C(C)(C)C)cc1)C2` (stereo unspecified), for which the melting point lay in the range of 103 to 106 °C.

For the compound `O=C(OCC1OC(n2cc(F)c(=O)[nH]c2=O)CC1OCc1ccccc1)c1cccnc1` (stereo unspecified), the melting point lay in the range of 130 to 132 °C.

`Cn1cnc(COc2nn3c(-c4ccc(F)cc4F)nnc3cc2C2(C)CCCCC2)n1`: the melting point was 156 °C.

For the compound `CC(CS)C(=O)Nc1cccc(C(=O)O)n1` (stereo unspecified), the melting point fell in the range of 178 to 179 °C.

The compound `COC(=O)c1ccc(CC(C)NCC(O)c2ccc(O)c(O)c2)cc1` (stereo unspecified) yielded a melting point of 169 °C.

For `CCc1nn2ccccc2c1C(C)=O`, the melting point was in the range of 108 to 112 °C.

Turning to `COc1cc(C(=O)NC(C)(C)C)ccc1S(=O)(=O)N1C(=O)C(N)(c2ccccc2Cl)c2cc(Cl)ccc21` (stereo unspecified), the melting point lay in the range of 263 to 265 °C.

On to `CC(=O)Nc1cc(Oc2ccc3c(C(=O)Nc4ccc(CN5CCN(C(C)C)CC5)c(C(F)(F)F)c4)cccc3c2)ncn1`, for which the melting point was in the range of 210 to 213 °C.

The compound `Cc1c(=O)n(Cc2ccc(C(=O)OC(C)(C)C)cc2)c(=O)n2ccsc12` had a melting point of 163 to 165 °C.

In turn, `COc1cc(-c2ccc(Cl)cc2)ccc1COCCc1cccc(NS(=O)(=O)C(F)(F)F)c1` yielded a melting point of 66 to 68 °C.

For the compound `CCCCCc1cc2c(nc(O)n2Cc2cccnc2)c(N)n1`, the melting point fell in the range of 243 to 245 °C.

Consider `CS(=O)(=O)Nc1ccc2ncn3c(=O)c(C(=O)O)cnc3c2c1`, for which the melting point lay in the range of 319 to 322 °C.

`CCCCCCc1ccc(O)c(C(=O)Nc2ccc([N+](=O)[O-])cc2)c1` returned a melting point of 154 to 155 °C.

Consider `CCCCc1ccc(CN(CCCCCCC(=O)O)S(C)(=O)=O)cc1`, for which the melting point is 137 °C.

Take `CCCCCC=Cc1cccc2c(=O)[nH]c(-c3cc(S(=O)(=O)N4CCOCC4)ccc3OCCC)nc12`: the melting point came to 112 °C.

The compound `COc1ccc(Nc2ccnc(Nc3cc(OC)c(OC)c(OC)c3)n2)cc1OC` came in with a melting point of 86 °C.

In turn, `CCOC(=O)Cc1ccc(NC(=O)c2cc(C(C)C)c(C(C)C)o2)cc1` registered a melting point of 91.5 to 92.5 °C.

`O=C(O)c1ccc(-c2nc(NCc3ccc4c(c3)OCO4)c3c4c(oc3n2)CCCC4)cc1` registered a melting point of 205 °C.

Consider `CCc1nn2c(-c3cccnc3)ccnc2c1Cl`, for which the melting point lay in the range of 132 to 133 °C.

Consider `CCOC(=O)C1(c2ccc(Cl)cc2)OCC(c2ccc(F)cc2)(c2ccc(F)cc2)CO1`, for which the melting point is 150 °C.

As to `CCOC(=O)Cc1ccc(NC(=O)C(COc2ccccc2)NS(=O)(=O)c2ccc(I)cc2)cc1` (racemic), the melting point was in the range of 178 to 180 °C.

Turning to `O=CNc1ccc(-c2ccncc2)cc1`, the melting point fell in the range of 188 to 190 °C.

Turning to `O=S(=O)(c1cccc2ccccc12)c1n[nH]c2ccc(OC3CCCNC3)cc12` (stereo unspecified), the melting point was 178 to 180 °C.

For `COc1ccc(-n2c(-c3cc(-c4ccccc4)c(N4CCOCC4)s3)nc3ccccc3c2=O)cc1`, the melting point lay within 164 to 165 °C.

`O=C1NCN(c2ccccc2)C12CCN(CCCC1(c3ccc(F)cc3F)OCCO1)CC2`: the melting point was in the range of 58 to 62 °C.

Compound `CCCc1c(OCCCS(=O)(=O)c2ccc(CC(=O)O)c(Cl)c2Cl)ccc(C(C)=O)c1O` yielded a melting point of 180 to 181 °C.

The compound `O=C1CCCc2cc(NS(=O)(=O)c3ccccc3)ccc21` showed a melting point of 164 to 165 °C.

`O=c1[nH]c2ccccc2c(=O)n1S(=O)(=O)c1ccc(Cl)cc1` displayed a melting point of 214 to 215 °C.

For `CC1=NC(=NOC(=O)NC2CCC2)SC1(C)C`, the melting point fell in the range of 94 to 96 °C.

For the compound `O=C(O)c1cccc(OCc2ccccc2)c1[N+](=O)[O-]`, the melting point is 198 to 200 °C.

`CCOC(=O)CCc1nc2cc3c(cc2[nH]1)NC(=O)C3(C)C` registered a melting point of 194 to 196 °C.

`Clc1cc(Cl)cc(CC(Cl)CC(Cl)(Cl)Cl)c1` (stereo unspecified) showed a melting point of 44.5 to 46.5 °C.

Consider `COC(=O)c1nc(Br)cc(Br)c1OCc1ccccc1`, for which the melting point fell in the range of 75 to 76 °C.

The compound `O=C(NCCOc1ccc(CC(Oc2ccccc2)C(=O)O)cc1)c1ccc(-c2ccc(C(F)(F)F)cc2)cc1` (stereo unspecified) had a melting point of 217 to 218 °C.

The compound `NC(CCCBr)C(=O)c1ccccc1` (stereo unspecified) displayed a melting point of 74 to 76 °C.

Compound `CCOC(=O)c1ccc(OCC(=O)O)cc1` came in with a melting point of 129 to 130 °C.

As to `CC(=O)N(CC1CC1)c1cccc(-c2ccc3nnc(C)n3n2)c1`, the melting point was 118 to 121 °C.

In turn, `COC(=O)c1ccc(C=C(C)[N+](=O)[O-])c(Cl)c1` had a melting point of 74 to 77 °C.

Regarding `COc1ccc(Cl)n2nc(SCc3ccccc3)nc12`, the melting point was in the range of 99 to 100 °C.

With `O=S(=O)(CC(F)(F)F)c1nc2cc(F)ccc2[nH]1`, the melting point is 160 to 162 °C.

In the case of `CCOC(=O)c1cc2cc(OCOC)ccc2s1`, the melting point fell in the range of 74 to 75 °C.

With `COC(=O)Nc1nc2cc(SCC3CC3)ccc2[nH]1`, the melting point is 228 to 231 °C.

Turning to `COc1cc([C@@H](O)[C@@H](C)N2CCC(O)(c3ccccc3)CC2)ccc1O` (relative stereo), the melting point is 188 °C.

`COc1ccc(S(=O)(=O)N(C(=O)c2snc(Cl)c2Cl)c2ccc(Cl)cc2)cc1` gave a melting point of 154 to 158 °C.

Compound `CN1C(=O)C(NC(=O)Nc2ccc(F)cc2)C(=O)N(C23CC4CC(CC(C4)C2)C3)c2ccccc21` (stereo unspecified) had a melting point of 239 to 241 °C.

In the case of `COc1cc2c(cc1OC)CC(C#N)=C2`, the melting point is 140 to 141 °C.

Compound `CC(C)(C)C(=O)c1c[nH]c2ncc(-c3ccoc3)nc12` registered a melting point of 256 to 258 °C.

`CC(=O)CCC(=O)Nc1cc(CO)cc(Nc2c3ccccc3nc3ccccc23)c1` gave a melting point of 197 to 199 °C.

Take `NC1N=C(c2ccccc2)c2ccccc2N(CC(F)(F)F)C1=O` (stereo unspecified): the melting point was in the range of 141 to 143 °C.

For `Cc1cccc(NC(=O)c2ccc(C(=O)N3Cc4ccccc4Cc4ccccc43)cc2)c1C`, the melting point lay within 248 to 251 °C.

`CCn1cc(C(=O)O)c(=O)c2cc(F)c(N3CCC(C(C)N)C3)c(F)c21` (stereo unspecified): the melting point was 212 to 217 °C.

In the case of `O=C(O)C=NNc1ccc(C(F)(F)F)cc1`, the melting point amounted to 125 °C.
